Assay results from patent US20250215029A1 (Recludix Pharma, Inc., priority 2022, published 2025).

Each compound was assayed against T1, pY641-STAT6 in PBMC (Homo sapiens, UniProt P42226) (assay: MSD-pSTAT-PBMC Assay (pSTAT6, IL-4 stimulated)). Details: STAT6, PBMC, compound 3 hrs, then 1 ng/mL IL-4 for 10 min; Table 115.
T1 construct: Cryopreserved Peripheral Blood Mononuclear Cells (PBMC) are from AllCells; host or cells: cryopreserved PBMC
T1 sequence (P42226 1-847): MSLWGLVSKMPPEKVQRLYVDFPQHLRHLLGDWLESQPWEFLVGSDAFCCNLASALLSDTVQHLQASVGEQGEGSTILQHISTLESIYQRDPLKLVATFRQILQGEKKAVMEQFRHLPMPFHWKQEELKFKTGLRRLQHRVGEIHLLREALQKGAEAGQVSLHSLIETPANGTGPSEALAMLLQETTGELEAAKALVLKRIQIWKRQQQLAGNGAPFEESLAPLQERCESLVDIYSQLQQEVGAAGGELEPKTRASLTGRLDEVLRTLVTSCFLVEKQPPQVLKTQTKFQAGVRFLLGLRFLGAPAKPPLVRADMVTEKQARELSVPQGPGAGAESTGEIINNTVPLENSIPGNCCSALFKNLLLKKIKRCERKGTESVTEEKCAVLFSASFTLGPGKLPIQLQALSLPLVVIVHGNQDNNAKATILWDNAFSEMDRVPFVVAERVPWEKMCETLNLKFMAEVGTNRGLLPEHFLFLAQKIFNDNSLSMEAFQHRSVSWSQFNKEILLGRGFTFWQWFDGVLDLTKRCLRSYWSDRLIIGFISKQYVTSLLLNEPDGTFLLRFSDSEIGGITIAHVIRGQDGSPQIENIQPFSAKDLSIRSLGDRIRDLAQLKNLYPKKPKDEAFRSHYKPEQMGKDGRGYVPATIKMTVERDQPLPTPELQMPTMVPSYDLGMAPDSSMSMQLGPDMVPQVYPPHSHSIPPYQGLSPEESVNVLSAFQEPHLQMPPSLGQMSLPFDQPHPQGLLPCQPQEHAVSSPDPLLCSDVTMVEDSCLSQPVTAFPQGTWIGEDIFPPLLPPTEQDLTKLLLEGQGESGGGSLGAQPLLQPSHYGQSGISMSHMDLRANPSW
Assay type: cell-based
Text: Cryopreserved Peripheral Blood Mononuclear Cells (PBMC) are from AllCells. Recombinant Human IL-4 and IL-6 are from Peprotech. Mouse monoclonal anti-STAT3 antibody, rabbit monoclonal anti-pY705-STAT3 antibody, rabbit monoclonal Anti-pY641-STAT6 antibody, and lysis buffer are from Cell Signaling Technology (CST). Mouse monoclonal anti-STAT6 antibody is from BioLegend. Assay plates, blocker, and anti-rabbit secondary antibody are from Meso Scale Discovery (MSD).
Cyropreserved PBMCs were thawed out and allowed to recover overnight in IMDM+10% heat-inactivated FBS prior to plating 50,000 (STAT3) or 25,000 (STAT6) cells per well in 96-well U-bottom tissue culture plates. Cells were treated with compound for 3 hrs, then stimulated with 10 ng/mL IL-6 (STAT3) or 1 ng/mL IL-4 (STAT6) for 10 min. Cells were then spun down and washed with ice-cold PBS prior to lysing the cell pellet with 1× lysis buffer (CST) with 1× HALT protease and phosphatase inhibitor cocktail (Thermo). Lysates were transferred to and incubated overnight at 4° C. with shaking in QuickPlex 96-well high bind assay plates (MSD) pre-coated overnight with 30 μL per well of 0.6 μg/mL mouse monoclonal anti-STAT3 antibody (STAT3) or 2 μg/mL mouse monoclonal anti-STAT6 antibody (STAT6) in 1× PBS, and pre-blocked for 1 hour with 3% Blocker-A (MSD). Captured protein in the assay plates were then washed and probed with 25 μL per well of […] rabbit monoclonal anti-pY705-STAT3 antibody (STAT3) or 0.18 μg/ml rabbit monoclonal Anti-pY641-STAT6 antibody (STAT6) in 1% Blocker-A for 1 hour at room temperature with shaking, then washed and probed with 25 ul per well of 1 ug/ml Sulfo-TAG Labeled Goat Anti-Rabbit Antibody (MSD) in 1% Blocker-A for 1 hour at room temperature with shaking. Assay plates were then washed and 150 μL of 1× Read Buffer-T (MSD) was added to each well prior to reading on an SQ120 MSD Plate Reader. Assay signal from each sample was subtracted by the signal from unstimulated control wells and normalized to DMSO control wells. IC50 values were calculated using Graph Pad Prism Dose-Response Nonlinear Regression with variable slope. For both pSTAT3 and pSTAT6 A=≤100 nM; B 100-1000 nM; C=>1000-3000 nM; D=>3 μM; and NT=Not Tested.

Row | Compound | IC50 [µM]
1 | CCCOC(=O)[C@H](C)NP(=O)(Oc1ccccc1)[C@@H](F)c1ccc2sc(C(=O)N[C@H]3CC[C@@H](C)C[C@H]4CC[C@@H](C(=O)N5C[C@@H](c6cccnc6)CC56CC6)N4C3=O)cc2c1 (stereo partly drawn) [Compound 470, propyl (((R)-fluoro(2-(((3S,6S,9R,10aR)-9-methyl-5-oxo-3-((R)-6-(pyridin-3-yl)-4-azaspiro[2.4]heptane-4-carbonyl)decahydropyrrolo[1,2-a]azocin-6-yl)carbamoyl)benzo [b]thiophen-5-yl)methyl)(phenoxy)phosphoryl)-L-alaninate] | < 0.1
2 | CCCOC(=O)[C@@H]1CCCN1P(=O)(Oc1ccccc1)[C@H](F)c1ccc2sc(C(=O)N[C@H]3CCC[C@H]4CC[C@@H](C(=O)N5C[C@H](c6ccccc6)[C@@H](C#N)C56CC6)N4C3=O)cc2c1 (stereo partly drawn) [Compound 487, propyl (((S)-(2-(((3S,6S,9aS)-3-((6S,7R)-7-cyano-6-phenyl-4-azaspiro[2.4]heptane-4-carbonyl)-5-oxooctahydro-1H-pyrrolo[1,2-a]azepin-6-yl)carbamoyl)benzo [b]thiophen-5-yl)fluoromethyl) (phenoxy)phosphoryl)-L-prolinate] | 1 to 3
3 | CCCOC(=O)[C@H](C)NP(=O)(Oc1ccccc1)C(F)c1ccc2sc(C(=O)N[C@H]3CCCC[C@H]4CC[C@@H](C(=O)N5C(=O)N(c6ccn(C)c(=O)c6)C(=O)C56CC6)N4C3=O)cc2c1 (stereo partly drawn) [Compound 977, propyl ((fluoro(2-(((3S,6S,10aS)-3-(6-(1-methyl-2-oxo-1,2-dihydropyridin-4-yl)-5,7-dioxo-4,6-diazaspiro[2.4]heptane-4-carbonyl)-5-oxodecahydropyrrolo [1,2-a]azocin-6-yl)carbamoyl)benzo [b]thiophen-5-yl)methyl)(phenoxy)phosphoryl)-L-alaninate] | 0.1 to 1
4 | COCCOC(=O)[C@H](C)NP(=O)(Oc1ccccc1)[C@H](F)c1ccc2sc(C(=O)N[C@H]3CCC[C@H]4CC[C@@H](C(=O)N5C[C@H](c6ccccc6)[C@@H](C#N)C56CC6)N4C3=O)cc2c1 (stereo partly drawn) [Compound 351, 2-methoxyethyl (((S)-(2-(((3S,6S,9aS)-3-((6S,7R)-7-cyano-6-phenyl-4-azaspiro[2.4]heptane-4-carbonyl)-5-oxooctahydro-1H-pyrrolo[1,2-a]azepin-6-yl)carbamoyl)benzo [b]thiophen-5-yl)fluoromethyl) (phenoxy)phosphoryl)-L-alaninate] | < 0.1
5 | CCCOC(=O)[C@H](C)NP(=O)(Cc1ccc2sc(C(=O)N[C@H]3CCC[C@H]4CC[C@@H](C(=O)N5C[C@@H](c6ccccc6)[C@H](C#N)C56CC6)N4C3=O)cc2c1)Oc1ccccc1 (stereo partly drawn) [Compound 486, propyl (((2-(((3S,6S,9aS)-3-((6R,7S)-7-cyano-6-phenyl-4-azaspiro[2.4]heptane-4-carbonyl)-5-oxooctahydro-1H-pyrrolo[1,2-a]azepin-6-yl)carbamoyl)benzo [b]thiophen-5-yl)methyl)(phenoxy)phosphoryl)-L-alaninate] | < 0.1
6 | CC(C)OC(=O)[C@H](C)NP(=O)(Cc1ccc2ccc(C(=O)N[C@H]3CCCC[C@H]4CC[C@@H](C(=O)N5C[C@H](c6cc[nH]c(=O)c6)CC56CC6)N4C3=O)cc2c1)Oc1ccccc1 (stereo partly drawn) [Compound 423, isopropyl (((7-(((3S,6S,10aS)-5-oxo-3-((S)-6-(2-oxo-1,2-dihydropyridin-4-yl)-4-azaspiro[2.4]heptane-4-carbonyl)decahydropyrrolo[1,2-a]azocin-6-yl)carbamoyl)naphthalen-2-yl)methyl)(phenoxy)phosphoryl)-L-alaninate] | 0.1 to 1
7 | CCCOC(=O)[C@H](C)NP(=O)(Oc1ccccc1)C(F)c1ccc2sc(C(=O)N[C@H]3CCCC[C@H]4CC[C@@H](C(=O)N5C[C@@H](C#N)[C@H](c6cccn(C)c6=O)C5)N4C3=O)cc2c1 (relative stereo) [Compound 299, propyl (((2-(((3S,6S,10aS)-3-(rel-(trans)-3-cyano-4-(1-methyl-2-oxo-1,2-dihydropyridin-3-yl)pyrrolidine-1-carbonyl)-5-oxodecahydropyrrolo [1,2-a]azocin-6-yl)carbamoyl)benzo [b]thiophen-5-yl)fluoromethyl) (phenoxy)phosphoryl)-L-alaninate] | 0.1 to 1
8 | CC(C)OC(=O)[C@H](C)NP(=O)(Oc1ccccc1)[C@@H](F)c1ccc2sc(C(=O)N[C@H]3CCCC[C@H]4CC[C@@H](C(=O)N5C[C@@H](c6cccnc6)CC56CC6)N4C3=O)cc2c1 (stereo partly drawn) [Compound 474, isopropyl (((R)-fluoro(2-(((3S,6S,10aS)-5-oxo-3-((R)-6-(pyridin-3-yl)-4-azaspiro[2.4]heptane-4-carbonyl)decahydropyrrolo[1,2-a]azocin-6-yl)carbamoyl)benzo [b]thiophen-5-yl)methyl)(phenoxy)phosphoryl)-L-alaninate] | < 0.1
9 | CCCOC(=O)[C@H](C)NP(=O)(Oc1ccccc1)C(F)c1ccc2sc(C(=O)N[C@H]3CCC[C@H]4CC[C@@H](C(=O)N5CC(c6cccnc6)CC56CC6)N4C3=O)cc2c1 (stereo partly drawn) [Compound 456, propyl ((fluoro(2-(((3S,6S,9aS)-5-oxo-3-(6-(pyridin-3-yl)-4-azaspiro[2.4]heptane-4-carbonyl)octahydro-1H-pyrrolo[1,2-a]azepin-6-yl)carbamoyl)benzo [b]thiophen-5-yl)methyl)(phenoxy)phosphoryl)-L-alaninate] | < 0.1
10 | CCCOC(=O)[C@H](C)NP(=O)(Oc1c(C)cccc1C)[C@@H](F)c1ccc2sc(C(=O)N[C@H]3CCC[C@H]4CC[C@@H](C(=O)N5C[C@@H](c6cccnc6)CC56CC6)N4C3=O)cc2c1 (stereo partly drawn) [Compound 481, propyl ((2,6-dimethylphenoxy) ((R)-fluoro(2-(((3S,6S,9aS)-5-oxo-3-((R)-6-(pyridin-3-yl)-4-azaspiro[2.4]heptane-4-carbonyl)octahydro-1H-pyrrolo[1,2-a]azepin-6-yl)carbamoyl)benzo [b]thiophen-5-yl)methyl)phosphoryl)-L-alaninate] | < 0.1
11 | C[C@H](NP(=O)(Oc1ccccc1)[C@@H](F)c1ccc2sc(C(=O)N[C@H]3CCCC[C@H]4CC[C@@H](C(=O)N5C[C@@H](c6cccnc6)CC56CC6)N4C3=O)cc2c1)C(=O)OC1CC1 (stereo partly drawn) [Compound 418, cyclopropyl (((R)-fluoro(2-(((3S,6S,10aS)-5-oxo-3-((R)-6-(pyridin-3-yl)-4-azaspiro[2.4]heptane-4-carbonyl)decahydropyrrolo[1,2-a]azocin-6-yl)carbamoyl)benzo [b]thiophen-5-yl)methyl)(phenoxy)phosphoryl)-L-alaninate] | < 0.1

Same assay, conditions: read-out: STAT6; PBMC, compound 3 hrs, then 1 ng/mL IL-4 for 10 min; Table 115

Row | Compound | IC50 [µM]
12 | CCCOC(=O)[C@H](C)NP(=O)(Oc1ccccc1)[C@@H](F)c1ccc2sc(C(=O)N[C@H]3CCCC[C@H]4CC[C@@H](C(=O)N5C[C@H](c6cccc(C#N)c6)[C@@H](C#N)C56CC6)N4C3=O)cc2c1 (single isomer, unassigned) [Compound 340] | < 0.1
